Assay: oral administration: blood concentration of the citrate salt vs free base Compound 1
Type: in vivo
Details: administered orally

AUC compared to the free base Compound 1: at least 5 fold
Cmax compared to the free base Compound 1: at least 11 fold
time to reach peak blood concentrations compared to the free base Compound 1: faster
Compound: Cc1cccc(C)c1CNc1cc(C(=O)N2CCC2)cn2c(C)c(C)nc12.O=C(O)CC(O)(CC(=O)O)C(=O)O [citrate salt of Compound 1, azetidin-1-yl{8-[(2,6-dimethylbenzyl)amino]-2,3-dimethylimidazo[1,2-a]pyridin-6-yl}methanone citrate salt]
